Experimental data taken from paper PMC4256409, “Role of Phenylalanine and Valine^10 Residues in the Antimicrobial Activity and Cytotoxicity of Piscidin-1” (PLoS ONE, 2014).
Where no end group is shown, it is not given here.

Assays:
MDRST CCARM 8003 = format: cell-based, multidrug-resistant S. typhimurium; conditions: broth microdilution, 37°C, 16 h, three independent experiments in triplicate, SD 14.0%
S. aureus KCTC3881 = format: cell-based, Staphylococcus aureus; conditions: KCTC3881, 16 h
P. aeruginosa KCTC2004 = format: cell-based, Pseudomonas aeruginosa; conditions: KCTC2004, 16 h
MDREC CCARM 1229 = format: cell-based, multidrug-resistant E. coli; conditions: broth microdilution, 37°C, 16 h, three independent experiments in triplicate, SD 14.0%
P. aeruginosa KCTC2513 = format: cell-based, Pseudomonas aeruginosa; conditions: KCTC2513, 16 h
[1] = test system: Standard bacterial strains; format: cell-based; conditions: average over the 14 standard bacterial strains of Table 2
S. aureus KCTC1916 = format: cell-based, Staphylococcus aureus; conditions: KCTC1916, 16 h
P. aeruginosa KCTC1637 = format: cell-based, Pseudomonas aeruginosa; conditions: KCTC1637, 16 h
MDRAB CCARM 12035 = format: cell-based, multidrug-resistant Acinetobacter baumanii; conditions: broth microdilution, 37°C, 16 h, three independent experiments in triplicate, SD 14.0%
B. subtilis KCTC1022 = format: cell-based, Bacillus subtilis; conditions: KCTC1022, 16 h
MRSA CCARM 3108 = format: cell-based, Methicillin-resistant S. aureus; conditions: CCARM 3108, 16 h
MRSA CCARM3089 = format: cell-based, Methicillin-resistant S. aureus; conditions: CCARM3089, 16 h
S. typhimurium KCTC1926 = format: cell-based, Salmonella typhimurium; conditions: KCTC1926, 16 h
MDRAB CCARM 12036 = format: cell-based, multidrug-resistant Acinetobacter baumanii; conditions: broth microdilution, 37°C, 16 h, three independent experiments in triplicate, SD 14.0%
MDRST CCARM 8009 = format: cell-based, multidrug-resistant S. typhimurium; conditions: broth microdilution, 37°C, 16 h, three independent experiments in triplicate, SD 14.0%
S. epidermidis KCTC1917 = format: cell-based, Staphylococcus epidermidis; conditions: KCTC1917, 16 h
MRSA CCARM 3126 = format: cell-based, Methicillin-resistant S. aureus; conditions: CCARM 3126, 16 h
MRSA CCARM 3090 = format: cell-based, Methicillin-resistant S. aureus; conditions: CCARM 3090, 16 h
[2] = test system: Drug-resistant bacterial strains; conditions: average over the 18 drug-resistant bacterial strains of Table 3
Description: Escherichia coli KCTC 1682, E. coli KCTC 2593, E. coli KCTC 2571, Salmonella typhimurium KCTC 1926, Pseudomonas aeruginosa KCTC 1637, P. aeruginosa KCTC 2004, P. aeruginosa KCTC 2513, Bacillus subtilis KCTC 3068, B. subtilis KCTC 1021, B. subtilis KCTC 1022, Staphylococcus epidermidis KCTC 1917, Staphylococcus aureus KCTC 1621, S. aureus KCTC 1916, and S. aureus KCTC 3881 were purchased from the Korean Collection for Type Cultures, Korea Research Institute of Bioscience & Biotechnology (Taejon, Korea). Methicillin-resistant S. aureus (MRSA) (CCARM 3089, CCARM 3090, CCARM 3108, CCARM 3114, and CCARM 3126), multidrug-resistant E. coli (MDREC) (CCARM 1229 and CCARM 1238), multidrug-resistant S. typhimurium (MDRST) (CCARM 8003, CCARM 8007, and CCARM 8009), multidrug-resistant Acinetobacter baumanii (MDRAB) (CCARM 12005, CCARM 12035, CCARM 12036, CCARM 12037), and multidrug-resistant P. aeruginosa (MDRPA) (CCARM 2002, CCARM 2003, CCARM 2095, and CCARM 2163) were obtained from the Culture Collection of Antibiotic-Resistant Microbes (CCARM) at Seoul Women’s University in Korea. The antimicrobial activities of the peptides against selected organisms, including three Gram-positive, three Gram-negative, and five antibiotic-resistant bacteria, were determined using a broth microdilution assay. Briefly, single colonies of bacteria and fungi were inoculated into Luria-Bertani (LB) medium and cultured overnight at 37°C. An aliquot of the culture was transferred to 10 mL of fresh LB and incubated for an additional 3–5 h at 37°C until it reached the mid-logarithmic phase. Two-fold serial dilutions of the peptides in 1% peptone were prepared. The serial dilutions (100 µL) were added to 100 µL of cells (2×10^6 colony-forming units (CFU)/mL) in 96-well microtiter plates and incubated at 37°C for 16 h. […] MIC values were calculated as the average of triplicate measurements from three independent assays.

MRSA CCARM 3114 = format: cell-based, Methicillin-resistant S. aureus; conditions: CCARM 3114, 16 h
B. subtilis KCTC3068 = format: cell-based, Bacillus subtilis; conditions: KCTC3068, 16 h
MDREC CCARM 1238 = format: cell-based, multidrug-resistant E. coli; conditions: broth microdilution, 37°C, 16 h, three independent experiments in triplicate, SD 14.0%
MDRPA CCARM 2003 = format: cell-based, multidrug-resistant P. aeruginosa; conditions: broth microdilution, 37°C, 16 h, three independent experiments in triplicate, SD 14.0%
MDRAB CCARM 12005 = format: cell-based, multidrug-resistant Acinetobacter baumanii; conditions: broth microdilution, 37°C, 16 h, three independent experiments in triplicate, SD 14.0%
S. aureus KCTC1621 = format: cell-based, Staphylococcus aureus; conditions: KCTC1621, 16 h
E. coli KCTC2593 = format: cell-based, Escherichia coli; conditions: KCTC2593, 16 h
MDRAB CCARM 12037 = format: cell-based, multidrug-resistant Acinetobacter baumanii; conditions: broth microdilution, 37°C, 16 h, three independent experiments in triplicate, SD 14.0%
MDRST CCARM 8007 = format: cell-based, multidrug-resistant S. typhimurium; conditions: broth microdilution, 37°C, 16 h, three independent experiments in triplicate, SD 14.0%
E. coli KCTC1682 = format: cell-based, Escherichia coli; conditions: KCTC1682, 16 h
B. subtilis KCTC1021 = format: cell-based, Bacillus subtilis; conditions: KCTC1021, 16 h
MDRPA CCARM 2163 = format: cell-based, multidrug-resistant P. aeruginosa; conditions: broth microdilution, 37°C, 16 h, three independent experiments in triplicate, SD 14.0%
E.coli KCTC2571 = format: cell-based, Escherichia coli; conditions: KCTC2571, 16 h
MDRPA CCARM 2095 = format: cell-based, multidrug-resistant P. aeruginosa; conditions: broth microdilution, 37°C, 16 h, three independent experiments in triplicate, SD 14.0%
MDRPA CCARM 2002 = format: cell-based, multidrug-resistant P. aeruginosa; conditions: broth microdilution, 37°C, 16 h, three independent experiments in triplicate, SD 14.0%

Row | Sequence | MIC (MDRST CCARM 8003) [µM] | MIC (S. aureus KCTC3881) [µM] | MIC (P. aeruginosa KCTC2004) [µM] | MIC (MDREC CCARM 1229) [µM] | MIC (P. aeruginosa KCTC2513) [µM] | Average MIC [1] [µM] | MIC (S. aureus KCTC1916) [µM] | MIC (P. aeruginosa KCTC1637) [µM] | MIC (MDRAB CCARM 12035) [µM] | MIC (B. subtilis KCTC1022) [µM] | MIC (MRSA CCARM 3108) [µM] | MIC (MRSA CCARM3089) [µM] | MIC (S. typhimurium KCTC1926) [µM] | MIC (MDRAB CCARM 12036) [µM] | MIC (MDRST CCARM 8009) [µM] | MIC (S. epidermidis KCTC1917) [µM] | MIC (MRSA CCARM 3126) [µM] | MIC (MRSA CCARM 3090) [µM] | Average MIC [2] [µM] | MIC (MRSA CCARM 3114) [µM] | also measured
1 | FKHHIFRGIKHVGKTIHRLVTG [Pis-F2K/V10K] | 16 | 4.0 | 8.0 | 8.0 | 8.0 | 4.0 | 4.0 | 1.0 | 2.0 | 4.0 | 8.0 | 8.0 | 2.0 | 2.0 | 8.0 | 4.0 | 8.0 | 8.0 | 5.8 | 8.0 | MIC (B. subtilis KCTC3068): 2.0 µM; MIC (MDREC CCARM 1238): 8.0 µM; MIC (MDRPA CCARM 2003): 2.0 µM; MIC (MDRAB CCARM 12005): 2.0 µM; MIC (S. aureus KCTC1621): 2.0 µM; MIC (E. coli KCTC2593): 4.0 µM; MIC (MDRAB CCARM 12037): 2.0 µM; MIC (MDRST CCARM 8007): 8.0 µM; MIC (E. coli KCTC1682): 1.0 µM; MIC (B. subtilis KCTC1021): 8.0 µM; MIC (MDRPA CCARM 2163): 2.0 µM; MIC (E.coli KCTC2571): 4.0 µM; MIC (MDRPA CCARM 2095): 2.0 µM; MIC (MDRPA CCARM 2002): 2.0 µM
2 | FKHHIFRGIVHVGKTIHRLVTG [Pis-F2K] | 16 | 2.0 | 8.0 | 16 | 8.0 | 3.9 | 2.0 | 4.0 | 2.0 | 1.0 | 16 | 16 | 8.0 | 2.0 | 16 | 2.0 | 16 | 16 | 9.8 | 16 | MIC (B. subtilis KCTC3068): 4.0 µM; MIC (MDREC CCARM 1238): 16 µM; MIC (MDRPA CCARM 2003): 2.0 µM; MIC (MDRAB CCARM 12005): 2.0 µM; MIC (S. aureus KCTC1621): 4.0 µM; MIC (E. coli KCTC2593): 2.0 µM; MIC (MDRAB CCARM 12037): 2.0 µM; MIC (MDRST CCARM 8007): 16 µM; MIC (E. coli KCTC1682): 4.0 µM; MIC (B. subtilis KCTC1021): 4.0 µM; MIC (MDRPA CCARM 2163): 2.0 µM; MIC (E.coli KCTC2571): 2.0 µM; MIC (MDRPA CCARM 2095): 2.0 µM; MIC (MDRPA CCARM 2002): 2.0 µM
3 | KFHHIFRGIKHVGKTIHRLVTG [Pis-F1K/V10K] | 8.0 | 2.0 | 2.0 | 4.0 | 2.0 | 1.8 | 2.0 | 1.0 | 2.0 | 2.0 | 4.0 | 4.0 | 1.0 | 2.0 | 8.0 | 1.0 | 4.0 | 4.0 | 4.0 | 8.0 | MIC (B. subtilis KCTC3068): 1.0 µM; MIC (MDREC CCARM 1238): 4.0 µM; MIC (MDRPA CCARM 2003): 2.0 µM; MIC (MDRAB CCARM 12005): 2.0 µM; MIC (S. aureus KCTC1621): 2.0 µM; MIC (E. coli KCTC2593): 2.0 µM; MIC (MDRAB CCARM 12037): 2.0 µM; MIC (MDRST CCARM 8007): 8.0 µM; MIC (E. coli KCTC1682): 1.0 µM; MIC (B. subtilis KCTC1021): 4.0 µM; MIC (MDRPA CCARM 2163): 2.0 µM; MIC (E.coli KCTC2571): 2.0 µM; MIC (MDRPA CCARM 2095): 2.0 µM; MIC (MDRPA CCARM 2002): 2.0 µM
